Results on 105 compounds are retold here after PubChem BioAssay AID1996.

SMILES strings stand for the structures. Converted amounts (≈) assume the structure as drawn.

For this data set the following is noted: buffer; pH 7.4; 200.0 µM.
Consider `CC(SC1=NCCN1S(C)(=O)=O)c1ccccc1` (stereo not given), for which the kinetic solubility worked out at 42.5 µg/mL (≈ 149 µM). The result for `COc1ccc(S(=O)(=O)NCCOc2ccccc2)cc1F` reads 2.4 µg/mL (≈ 7.38 µM); that for `Cc1ccc(NC(=O)CCn2cnc3ccccc3c2=O)c(C)c1`, 13.7 µg/mL (≈ 42.6 µM); that for `CNC(=S)/N=C/NOCc1c(Cl)cccc1Cl`, 9.5 µg/mL (≈ 32.5 µM). Turning to `O=C1CN(C(=O)/C=C/c2ccc(Cl)cc2Cl)CCN1`, the solubility (kinetic) was found to be 44.2 µg/mL (≈ 148 µM).

On to `COCCn1c(=O)[nH]c2cc(C(=O)Nc3cccc(F)c3)ccc2c1=O`, for which the solubility (kinetic) amounted to 6.2 µg/mL (≈ 17.4 µM). The result for `Cc1cc2ccccn2c1C(=O)c1ccc(C#N)cc1` reads 1.9 µg/mL (≈ 7.3 µM); that for `CCCCC(=O)Nc1ccc(NCc2ccc(C)s2)cc1`, 16 µg/mL (≈ 52.9 µM); that for `CN(CC12CC3CC(CC(C3)C1)C2)C(=O)c1ccco1`, 37.8 µg/mL (≈ 138 µM). The result for `CCOC(=O)C1CCN(C(=O)/C=C/c2ccc3c(c2)OCO3)CC1` reads above 49.7 µg/mL; that for `CCOCCCNC(c1ccccc1)c1ccncc1` (stereo not given), 38 µg/mL (≈ 141 µM); that for `O=C(Nc1ccccc1C(F)(F)F)N1CCCC1c1cccnc1` (stereo not given), above 50.3 µg/mL. The figure for `CNC(=S)Nc1ccc([N+](=O)[O-])cc1` is above 31.7 µg/mL; for `Cl.O=C(NCCCn1ccnc1)c1cc(Cl)cc(Cl)c1` it is above 50.2 µg/mL; for `O=C(O)CNS(=O)(=O)c1cccc(Cl)c1` it is above 37.5 µg/mL. Consider `O=C(COC(=O)c1ccc(F)cc1)NCC1COc2ccccc2O1` (stereo not given), for which the solubility (kinetic) was above 51.8 µg/mL. With `CC(C(=O)N1CCCCCC1)N(c1ccc(Cl)cc1)S(C)(=O)=O` (stereo not given), the solubility (kinetic) is 46.8 µg/mL (≈ 130 µM).

`Cc1cc(C(=O)OCC(=O)NCc2ccccc2)c(C)o1` gave a solubility (kinetic) above 43.1 µg/mL. Regarding `CCOc1ccc(C(=O)N(CN2CCCC2=O)c2cccc(Cl)c2)cc1`, the solubility (kinetic) was above 55.9 µg/mL. The figure for `COC(=O)/C(C#N)=C/c1c(Oc2cccc(C)c2C)nc2ccccn2c1=O` is 1 µg/mL (≈ 2.66 µM). The result for `C/C(=N\O)C(C)(C)Nc1ccccc1F` reads 28.1 µg/mL (≈ 134 µM); that for `COc1ccccc1C1=NOC(COC(=O)c2ccc([N+](=O)[O-])cc2)C1` (stereo not given), below 0.4 µg/mL. The result for `Cc1cc(C(=O)N2CCc3ccccc3C2)c(C)o1` reads above 38.3 µg/mL.

The compound `COc1ccc(-c2cc(=O)[nH]c3ccccc23)cc1` returned a solubility (kinetic) of 4.6 µg/mL (≈ 18.3 µM). The figure for `O=C(NN=C1CCCC1)C1COc2ccccc2O1` (stereo not given) is above 39 µg/mL.

In the case of `CC(=O)c1cn(Cc2ccccc2C#N)c2ccccc12`, the kinetic solubility amounted to 7 µg/mL (≈ 25.5 µM). The result for `O=C(Nc1cccc([N+](=O)[O-])c1)c1ccc2nsnc2c1` reads 1.9 µg/mL (≈ 6.33 µM); that for `Cc1ccc(NC(=S)N2CCCC(c3nc4ccccc4[nH]3)C2)cc1` (stereo not given), 2.3 µg/mL (≈ 6.56 µM); that for `O=C(/C=C/c1ccc([N+](=O)[O-])cc1)OCC(=O)N1CCCCCC1`, 18.9 µg/mL (≈ 56.9 µM).

Consider `Cl.O=C(O)c1ccc(Nc2ncnc3ccccc23)cc1`, for which the kinetic solubility is above 45.3 µg/mL. The result for `COc1ccc(-c2nc3ccccc3o2)cc1OC` reads below 0.5 µg/mL; that for `Oc1ccc2ccccc2c1C=NCc1ccccc1`, 10.8 µg/mL (≈ 41.3 µM). The result for `Cc1oc(-c2ccc(Cl)cc2)cc1C(=O)/C(C#N)=C/Nc1ccccc1` reads 1.4 µg/mL (≈ 3.86 µM); that for `COc1ccc(C(=O)OC(C)CN2CCN(C)CC2)cc1.Cl` (stereo not given), above 49.3 µg/mL; that for `CN(C)c1ccc(C(=O)N2CCCC2)cc1`, above 32.7 µg/mL. The figure for `C#CCN1C(=O)S/C(=C\c2cc3c(cc2OC)OCO3)C1=O` is 1.1 µg/mL (≈ 3.47 µM). Compound `O=C(Cn1cncn1)N/N=C/c1ccccc1O` registered a kinetic solubility above 36.8 µg/mL. With `Cc1ccc2nc(N3CCN(CCO)CC3)nc(-c3ccccc3)c2c1`, the kinetic solubility is above 52.3 µg/mL. With `CC(=O)c1ccc(NC(=O)C[n+]2cccc(C)c2)cc1.[Cl-]`, the kinetic solubility is above 45.7 µg/mL.

As for `Cc1cc(C)cc(NC(=O)C(C)N2C(=O)c3ccccc3C2=O)c1` (stereo not given), the kinetic solubility was determined as 14.4 µg/mL (≈ 44.7 µM). The result for `COc1ccc2[nH]c3c(=O)n(CCc4ccccc4)cnc3c2c1` reads 0.6 µg/mL (≈ 1.88 µM); that for `COc1ccc(N(C)C(=O)c2sc(Cl)nc2C)cc1`, 42.7 µg/mL (≈ 144 µM).

`COc1ccccc1OCCNC(=O)CCNC(=O)c1ccccc1Cl` came in with a solubility (kinetic) above 56.5 µg/mL. The result for `Cc1cc(C)c2ccc(Cl)cc2n1` reads 1.5 µg/mL (≈ 7.83 µM); that for `COC(=O)c1sccc1NC(=O)Nc1ccc(F)cc1`, 28.4 µg/mL (≈ 96.5 µM). The figure for `CCN(c1ccccc1)S(=O)(=O)c1c(C)noc1C` is 31.4 µg/mL (≈ 112 µM).

With `CC(=O)Oc1ccccc1C(=O)N(C1CCCCC1)C1CCCCC1`, the kinetic solubility is 44.5 µg/mL (≈ 130 µM). The figure for `O=C(CCc1ccccc1)Nc1ccc2c(c1)C(=O)OC2` is 15.4 µg/mL (≈ 54.7 µM); for `COc1cccc(N(CC(=O)N2CCOCC2)S(C)(=O)=O)c1` it is above 49.3 µg/mL.

The compound `CC(Sc1ccccn1)C(=O)Nc1ccc2c(c1)OCO2` (stereo not given) returned a solubility (kinetic) of 39 µg/mL (≈ 129 µM). The result for `CCCc1cc(=O)[nH]c(SCC(=O)Nc2nonc2C)n1` reads above 46.4 µg/mL; that for `NC(=O)C12CCCC(Br)(CCC1)C2`, 36.2 µg/mL (≈ 147 µM). The result for `CC(C)CCn1c(N2CCCC2)nc2c1c(=O)[nH]c(=O)n2C` reads above 45.8 µg/mL. The figure for `COCCCN1C(=O)CS/C1=N\S(=O)(=O)c1ccccc1` is above 49.3 µg/mL.

The compound `COc1ccccc1CNC(=O)c1ccc2c(c1)OCO2` registered a solubility (kinetic) above 42.8 µg/mL.

Compound `CN1CCCC(OC(=O)c2cc(F)c(F)c(F)c2F)C1.Cl` (stereo not given) displayed a kinetic solubility of 45.4 µg/mL. The figure for `COc1ccccc1N(Cc1cc(=O)[nH]c2ccccc12)C(C)=O` is above 48.4 µg/mL; for `COCCn1c(C(C)C)nc2ccccc21` it is above 32.7 µg/mL. The figure for `C=CCN(Cc1nc(-c2ccccc2)no1)C(=O)c1ccc2c(c1)OCO2` is 21.1 µg/mL (≈ 58.1 µM); for `CCOC(=O)Cc1csc(NC(=O)Nc2cccc(OC)c2)n1` it is 5.8 µg/mL (≈ 17.3 µM).

On to `Cc1nnc(SCC(=O)NC2CC2)n1-c1ccccc1`, for which the kinetic solubility was above 43.3 µg/mL.

Compound `Fc1ccc(Nc2ncnc3sccc23)cc1` displayed a kinetic solubility of 32.8 µg/mL (≈ 134 µM).

Turning to `O/N=C/c1ccc2cccc(O)c2n1`, the kinetic solubility was determined as 26.3 µg/mL (≈ 140 µM).

The compound `Cc1ccc2[nH]cc(S(=O)(=O)c3ccc(C)c(C)c3)c(=O)c2c1` registered a solubility (kinetic) below 0.7 µg/mL.

`CC1SC(c2ccc(F)cc2)N(CCc2ccccc2)C1=O` (stereo not given) returned a solubility (kinetic) of 21.8 µg/mL (≈ 69.1 µM). The result for `CCCNC(=O)c1csc(Nc2cccc3ccccc23)n1` reads 17.8 µg/mL (≈ 57.2 µM). The result for `O=c1cc(-c2ccccc2)nc(/C=C/c2ccccc2)[nH]1` reads 0.4 µg/mL (≈ 1.46 µM).

`CC(=O)Nc1ccccc1OCc1cnc(Cl)s1` returned a kinetic solubility above 42.4 µg/mL. The figure for `CCOC(=O)C1CCN(C(=O)Nc2cccc(OC)c2)CC1` is above 46 µg/mL; for `O=C(Cn1c(=O)oc2ccccc21)NCC1COc2ccccc2O1` (stereo not given) it is above 51.1 µg/mL. Consider `CCN(CC)C(=O)c1ccc(CS(=O)(=O)Cc2ccccc2)cc1`, for which the solubility (kinetic) was above 51.8 µg/mL. The result for `Cc1ccc(C)c(OCCC(=O)Nc2cc(S(=O)(=O)N3CCCCC3)ccc2C)c1` reads 2.4 µg/mL (≈ 5.57 µM). The figure for `Cc1cc(C)c(S(=O)(=O)Nc2ccc3[nH]c(=O)[nH]c3c2)c(C)c1` is 2.8 µg/mL (≈ 8.45 µM); for `O=C(COC(=O)c1ccc(O)cc1)Nc1ccc2c(c1)OCCO2` it is 21.9 µg/mL (≈ 66.5 µM). The compound `Cc1cc(NC(=O)CSc2c[nH]c3ccccc23)no1` showed a solubility (kinetic) above 43.1 µg/mL. The figure for `Cl.NCCNC(=O)c1c(O)c2cccc3c2n(c1=O)CCC3` is 48.3 µg/mL. The figure for `CCOC(=O)c1c(C)nc(C)c(C(=O)OCC)c1-c1cccc(N)c1` is 42.1 µg/mL (≈ 123 µM). Turning to `CCOc1ccc(C(=O)O/N=C(\N)c2ccccn2)cc1OCC`, the kinetic solubility amounted to 21.4 µg/mL (≈ 65 µM).

For `Cc1cccc(NC(=O)Nc2cccc3ccccc23)c1`, the solubility (kinetic) was below 0.3 µg/mL.

In turn, `CCNc1ccc(S(=O)(=O)N(C)C)cc1[N+](=O)[O-]` displayed a solubility (kinetic) of 23.1 µg/mL (≈ 84.5 µM). The figure for `C=CCOc1cccc(/C=C/c2nc3ccccc3c(=O)[nH]2)c1` is above 45.7 µg/mL; for `CCCCOc1cc(C(=O)OCCN(CC)CC)ccc1N` it is 42.7 µg/mL (≈ 138 µM); for `O=C(Nc1cccc(Cl)c1)NC1CC2CCC1C2` (stereo not given) it is 1.1 µg/mL (≈ 4.15 µM). The figure for `Cc1cc(C(=O)N2CCN(c3ncccc3C#N)CC2)no1` is 43.7 µg/mL (≈ 147 µM); for `N#Cc1ccc(COC(=O)c2cnc3ccccc3n2)cc1` it is 6.1 µg/mL (≈ 21.1 µM); for `COc1ccccc1NS(=O)(=O)c1ccc2c(c1)OCCO2` it is 48 µg/mL (≈ 149 µM).

`CCc1ccc(OCCOC(=O)Nc2ccccc2)cc1` yielded a kinetic solubility below 0.6 µg/mL.

As for `Cc1ccc(NS(=O)(=O)c2ccc3c(c2)n(C)c(=O)n3C)cc1C`, the kinetic solubility came out at 1.2 µg/mL (≈ 3.47 µM). The figure for `CCc1ccc(C(=O)COC(=O)C2=NN(c3ccccc3)C(=O)CC2)cc1` is above 54.7 µg/mL. The result for `CC(=O)N1CCc2c(sc(NC(=O)Cc3ccc(F)cc3)c2C#N)C1` reads below 0.3 µg/mL. The result for `Cc1noc(C)c1CN1C(=O)c2cccc([N+](=O)[O-])c2C1=O` reads above 45.2 µg/mL; that for `O=c1cc[nH]c2ccc(OC(F)(F)F)cc12`, above 34.4 µg/mL; that for `COC(c1ccccc1)c1nc2ccccc2[nH]c1=O` (stereo not given), above 39.9 µg/mL. Consider `COC(=O)c1ccc(C(=O)N(Cc2ccccc2)c2ccccc2)cc1`, for which the solubility (kinetic) was 10.7 µg/mL (≈ 31 µM). The result for `CCOc1ccccc1NC(=S)NC(=O)CCc1ccccc1` reads below 0.4 µg/mL; that for `O=C(Nc1ccc(F)c(Cl)c1)C1CC2CCC1C2` (stereo not given), 2.8 µg/mL (≈ 10.5 µM). As to `Cc1ccc(CNC(=O)c2ccc(S(=O)(=O)N(C)C)cc2)n1C`, the kinetic solubility came out at 48.6 µg/mL (≈ 145 µM). With `CCc1cc2c(Nc3ccc(O)cc3)nc(C)nc2s1.Cl`, the kinetic solubility turned out to be 13.4 µg/mL. The figure for `CCCCN(C)C(=O)c1nc2ccccn2c1CN1CCSCC1` is 48.3 µg/mL (≈ 139 µM); for `COc1ccc(C(C)=O)cc1COc1cccc2cccnc12` it is 15.7 µg/mL (≈ 51.1 µM); for `COc1ccc(NC(=O)CC(C)n2ccnc2)cc1` (stereo not given) it is above 38.9 µg/mL. The figure for `COC(=O)C(C)Oc1ccc(-c2nccc(-c3ccc(F)cc3)n2)cc1` (stereo not given) is 2.6 µg/mL (≈ 7.38 µM). `O=C(c1ccc(Cl)cc1Cl)N1CCSCC1` had a kinetic solubility above 41.4 µg/mL. As for `CSc1ncccc1C(=O)OCC(=O)NC(C)CCc1ccccc1` (stereo not given), the solubility (kinetic) came to 29.1 µg/mL (≈ 81.2 µM). In turn, `COc1ccc(NC(=O)c2ccc3c(c2)OCO3)cc1` returned a solubility (kinetic) of 3.8 µg/mL (≈ 14 µM).
